Measurements published in PubChem BioAssay AID248 (DTP/NCI, 2004).
Inconclusive results and toxic doses are left out.

Tested on: L1210 leukemia ip in BDF1 mice, survival T/C
Experiment: NCI In Vivo Anticancer Drug Screen. Data for tumor model L1210 Leukemia (intraperitoneal) in B6D2F1 (BDF1) mice
Details: endpoint: mean survival time, higher = longer survival
Summary of the method: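 Antitumor effect is assessed in tumor-bearing animals. Survival in the compound arm is compared with a vehicle-dosed control arm and expressed as their quotient.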

[1] = dose: 75.0 mg/kg/injection, schedule: Q04DX003 (ip), vehicle: saline
[2] = dose: 150.0 mg/kg/injection, schedule: Q04DX003 (ip), vehicle: saline
[3] = dose: 100.0 mg/kg/injection, schedule: Q01DX001 (ip), vehicle: saline
[4] = dose: 200.0 mg/kg/injection, schedule: Q01DX001 (ip), vehicle: saline
[5] = dose: 400.0 mg/kg/injection, schedule: Q01DX001 (ip), vehicle: saline
[6] = dose: 100.0 mg/kg/injection, schedule: Q01DX001 (ip), vehicle: Klucel (hydroxypropylcellulose) (HPC)
[7] = dose: 200.0 mg/kg/injection, schedule: Q01DX001 (ip), vehicle: Klucel (hydroxypropylcellulose) (HPC)
[8] = dose: 400.0 mg/kg/injection, schedule: Q01DX001 (ip), vehicle: Klucel (hydroxypropylcellulose) (HPC)

Compound: C[n+]1c(/C=C\C=C\N2CCCCC2)sc2ccccc21
- T/C (dose: 1.25 mg/kg/injection, schedule: Q04DX002 (ip), vehicle: saline with Tween-80): 97 % of control
- T/C (dose: 2.5 mg/kg/injection, schedule: Q04DX002 (ip), vehicle: saline with Tween-80): 108 % of control

Compound: COC1=C(c2ccccc2)P(=O)(Cc2ccccc2)C(C)C1 (configuration not stated)
- T/C (dose: 100.0 mg/kg/injection, schedule: Q04DX002 (ip), vehicle: Klucel (hydroxypropylcellulose) (HPC)): 108 % of control
- T/C (dose: 200.0 mg/kg/injection, schedule: Q04DX002 (ip), vehicle: Klucel (hydroxypropylcellulose) (HPC)): 96 % of control
- T/C (dose: 400.0 mg/kg/injection, schedule: Q04DX002 (ip), vehicle: Klucel (hydroxypropylcellulose) (HPC)): 93 % of control

Compound: CCOc1ccc(/C=C/C(=O)c2ccc(C)cc2)cc1OCC
- T/C [1]: 100 % of control
- T/C [2]: 102 % of control
- T/C (dose: 300.0 mg/kg/injection, schedule: Q04DX003 (ip), vehicle: saline): 105 % of control

Compound: CCCOC(=O)C1OC12CCCCC2 (configuration not stated)
- T/C (dose: 100.0 mg/kg/injection, schedule: Q01DX009 (ip), vehicle: saline with Tween-80): 103 % of control
- T/C (dose: 200.0 mg/kg/injection, schedule: Q01DX009 (ip), vehicle: saline with Tween-80): 100 % of control
- T/C (dose: 400.0 mg/kg/injection, schedule: Q01DX009 (ip), vehicle: saline with Tween-80): 103 % of control

Compound: C1CCC(CCC(CCCC2CCCC2)CCCC2CCCC2)CC1
- T/C (dose: 100.0 mg/kg/injection, schedule: Q01DX001 (ip), vehicle: saline with Tween-80): 97 % of control
- T/C (dose: 200.0 mg/kg/injection, schedule: Q01DX001 (ip), vehicle: saline with Tween-80): 92 % of control
- T/C (dose: 400.0 mg/kg/injection, schedule: Q01DX001 (ip), vehicle: saline with Tween-80): 101 % of control

Compound: NC(CCCCN=Cc1ccccc1O)C(=O)O (configuration not stated)
- T/C [3]: 95 % of control
- T/C [4]: 92 % of control
- T/C [5]: 91 % of control

Compound: CCOCC(O)CO (configuration not stated)
- T/C [3]: 110 % of control
- T/C [4]: 98 % of control
- T/C [5]: 96 % of control

Compound: CC1(C)OC2OC(C(O)CO)C(O)C2O1 (configuration not stated) (tested in a mixture with another compound)
- T/C (dose: 12.5 mg/kg/injection, schedule: Q04DX002 (ip), vehicle: saline): 100 % of control
- T/C (dose: 25.0 mg/kg/injection, schedule: Q04DX002 (ip), vehicle: saline): 95 % of control
- T/C (dose: 50.0 mg/kg/injection, schedule: Q04DX002 (ip), vehicle: saline): 95 % of control

Compound: C(C[P+](c1ccccc1)(c1ccccc1)c1ccccc1)=C(c1ccccc1)c1ccccc1
- T/C (dose: 10.0 mg/kg/injection, schedule: Q01DX001 (ip), vehicle: saline): 103 % of control
- T/C (dose: 40.0 mg/kg/injection, schedule: Q01DX001 (ip), vehicle: saline): 95 % of control

Compound: O=C(O)CCC1(c2ccccc2)CCCC1=O (configuration not stated)
- T/C (dose: 12.5 mg/kg/injection, schedule: Q01DX009 (ip), vehicle: water): 101 % of control
- T/C (dose: 25.0 mg/kg/injection, schedule: Q01DX009 (ip), vehicle: water): 104 % of control
- T/C (dose: 50.0 mg/kg/injection, schedule: Q01DX009 (ip), vehicle: water): 98 % of control
- T/C (dose: 100.0 mg/kg/injection, schedule: Q01DX009 (ip), vehicle: water): 95 % of control

Compound: N#CC1C(=O)NC(=O)C(C#N)C12CCN(Cc1ccccc1)CC2 (configuration not stated)
- T/C [6]: 102 % of control
- T/C [7]: 97 % of control
- T/C [8]: 103 % of control

Compound: O=C(CCCCCCCCC(=O)Nc1cccc(C2=NCCN2)c1)Nc1cccc(C2=NCCN2)c1
- T/C (dose: 2.5 mg/kg/injection, schedule: Q01DX Z (ip), vehicle: saline): 95 % of control
- T/C (dose: 5.0 mg/kg/injection, schedule: Q01DX Z (ip), vehicle: saline): 91 % of control
- T/C (dose: 10.0 mg/kg/injection, schedule: Q01DX Z (ip), vehicle: saline): 91 % of control

Compound: CC(CN=[N+]=[N-])OC(=O)C(F)(F)F (configuration not stated)
- T/C (dose: 37.5 mg/kg/injection, schedule: Q04DX003 (ip), vehicle: saline): 104 % of control
- T/C [1]: 102 % of control
- T/C [2]: 106 % of control

Compound: CCCCCCCCCCCCCCCCOc1ccc(C(C)(C)C)cc1
- T/C [6]: 93 % of control
- T/C [7]: 93 % of control
- T/C [8]: 93 % of control

Compound: CN1C(CSCC(F)(F)F)Nc2cc(Cl)c(S(N)(=O)=O)cc2S1(=O)=O (configuration not stated)
- T/C (dose: 100.0 mg/kg/injection, schedule: Q01DX001 (ip), vehicle: carboxymethylcellulose (CMC)): 108 % of control
- T/C (dose: 200.0 mg/kg/injection, schedule: Q01DX001 (ip), vehicle: carboxymethylcellulose (CMC)): 106 % of control
- T/C (dose: 400.0 mg/kg/injection, schedule: Q01DX001 (ip), vehicle: carboxymethylcellulose (CMC)): 103 % of control

Compound: O=C1C(O)C23CC=CCC12CC=CC3 (configuration not stated)
- T/C [3]: 116 % of control
- T/C [4]: 105 % of control
- T/C [5]: 100 % of control
